{
  "source": "patent US20240120053A1",
  "about": "“5-HT RECEPTOR AGONIST TITRATION” (Diamond Therapeutics Inc., priority 2021, published 2024)",
  "key": {"[1]": {"system": "mice", "experiment": "Mismatch Negativity (MMN) EEG test, ascending dose protocol", "type": "in vivo", "settings": "ascending low, medium, high dose, frontal cortex EEG recording (FIG. 6A, 6B)", "experimental": "(§1) Fourteen mice with a history of testing with scopolamine and memantine, containing implanted with a frontal screw for MMN measurement (in mm: AP 1.5; ML 0.5) and an auditory screw for ASSR measurement (in mm: AP −2.8; ML 4.2), are administered an ascending dose of psilocybin. As the mice have been tested with the MMN-ASSR protocol, they are not further habituated prior to psilocybin testing. The ascending dose protocol is summarized below and in FIG. 1: • Week 1: Day 1: Saline, Day 2: Vehicle • Week 2: Day 1:Saline, Day 2: Low Dose • Week 3: Day 1: Saline, Day 2: Medium Dose • Week 4: Day 1: Saline, Day 2: High Dose\nEach animal is administered the same compound and dose each day (e.g., saline on day 1, vehicle or compound on day 2). […]\n(§2) The ongoing behavior (e.g., speed, total number of grooming bouts, elongation factor, distance traveled, head bobbing, etc.) of each mouse is assessed over each daily recording session (e.g., see FIG. 3). […] The amplitude of the standard and deviant waveforms are also calculated. […] The ASSR is recorded as the average amplitude of both Evoked Power and Phase Locking Factor at each frequency (20 Hz, 30 Hz, 40 Hz, and 8 Hz) for control (saline) and compound (psilocybin). The difference between the control and compound recording for Evoked Power (e.g., see FIG. 4A and FIG. 4B) and Phase Locking Factor (e.g., see FIG. 5A and FIG. 5B) is determined. […]"}, "[2]": {"system": "mice", "experiment": "Ongoing spectral power (qEEG, power spectral density) over daily recording sessions", "type": "in vivo", "settings": "ascending low, medium, high dose (FIG. 7A-8B)", "experimental": "as §1\nIn particular, on Day 1, animals are subcutaneously administered saline at t=−15 minutes prior to recording start. […]\nas §2"}, "[3]": {"system": "out-bred Long Evans rats", "experiment": "Progressive ratio (PR) test of motivation", "type": "in vivo", "experimental": "(§3) Experiments were conducted to test psilocybin doses in the range of 0.05-0.2 mg/kg psilocybin administered S.C. across progressive ratio (PR) and 5-choice serial reaction time task (5CSRTT) to examine the effect of psilocybin on endophenotypes of motivation and attention. In each study, a population of out-bred Long Evans rats was first tested as a group for response to the PR and 5CSRTT. Each group was then divided into sub-groups by tertiles according to performance, and then exposed to various dose levels immediately prior to re-testing at various psilocybin dose levels.\nThe PR test is used to answer how willing the test subject is to work for food (i.e. test of motivation). A single 45 mg food pellet (i.e. reinforcer) is made available to the test animal based on lever press response. To obtain each successive pellet, the animal must make increasingly more lever presses. Typically, a progression of 2, 4, 6, 9, 12, 15, 20, 25, 32, 40, 50, 62, 77, 95, 118, etc. is used, derived from the equation:\nratio=[5×e^(0.2×reinforcer#)−5]\nAt some point, the animal gives up as the motor demands to obtain a single pellet are not deemed worthwhile (i.e. animal reaches“break point” defined as animal's failure to earn a food pellet in 20 minutes).\nRats were then sub-grouped into tertiles based on the number of lever presses for food at baseline, so that within the test population of 36 animals, 12 animals were identified as low responders, characterized by low motivation and potentially corresponding to low motivation endophenotype representative of clinical depression. Twelve animals were identified as high responders. There was a statistically significant difference between the high and low responders. […] This represents a motivational enhancing effect of psilocybin in the cohort corresponding to a low motivation endophenotype representative of clinical depression."}, "[4]": {"system": "out-bred Long Evans rats", "experiment": "5-choice serial reaction time task (5CSRTT), standard conditions, 5 s ITI", "type": "in vivo", "experimental": "as §3\n(§4) The 5CSRTT involves evaluating test subject response to a brief visual stimulus (Higgins, Guy & Silenieks, Leonardo. (2017). Rodent Test of Attention and Impulsivity: The 5-Choice Serial Reaction Time Task: The 5-Choice Serial Reaction Time Task. 10.1002/cpph.27). Animals are trained to make a nose-poke response to a stimulus location in order to collect a food reward. The task allows the experimenter to measure animal performance in multiple domains including: • Attention • Impulsivity • Perseveration • Speed of response\n(§5) A strength of the test is its flexible configuration to challenge test subjects: • Standard test conditions (0.75s stimulus duration (SD), 5s inter-trial interval (ITI), 100 trials) • Multiple short stimulus duration (mSD) (0.03-1s SD) • Fixed long ITI (5 s vs. 10 s ITI) • Multiple ultrashort ITI (2-5s ITI) • Extended 250 trials\nAsterisk (*) indicates statistical significance vs. vehicle. (FIG. 23A).\nWhen this population is segmented into tertiles according to performance based on accuracy (% correct, calculated as #correct/(#correct+#incorrect)*100), the lowest performing tertile (N=8) are considered to be low attentive and potentially representative of a low attentive endophenotype of depression (FIG. 26A). Low attentive rats also score poorly on % hit (FIG. 26B) and have a slower response speed (FIG. 26D). […] Asterisk (*) indicates statistical significance vs. vehicle. […] Using a longer duration between stimulus and reward, the 5CSRTT study measures premature (PREM) and perseverant (PSV) responses. PREM/PSV responses were increased by increasing the ITI from 5s (baseline) to 10s (test condition). […] Both PREM and PSV behaviors are examples of executive cognitive function, likely involving areas of the prefrontal cortex, a brain region rich in 5-HT2A receptors."}, "[5]": {"system": "out-bred Long Evans rats", "experiment": "5CSRTT with long 10 s ITI, premature (PREM) and perseverative (PSV) responses", "type": "in vivo", "settings": "24 rats, 0.05 mg/kg S.C., p=0.05, t-test", "source_text": "as §4, §5\nWhen this population is segmented into tertiles according to performance based on accuracy (% correct, calculated as #correct/(#correct+#incorrect)*100), the lowest performing tertile (N=8) are considered to be low attentive and potentially representative of a low attentive endophenotype of depression (FIG. 26A). Low attentive rats also score poorly on % hit (FIG. 26B) and have a slower response speed (FIG. 26D). […] Asterisk (*) indicates statistical significance vs. vehicle. […]"}, "[6]": {"experiment": "Blood plasma levels of psilocin over time in rats dosed with psilocybin", "type": "in vivo", "settings": "psilocybin 0.05 mg/kg, after 30 mins"}, "[7]": {"settings": "cited from earlier work"}, "[8]": {"settings": "24 rats, standard conditions, 5 s ITI"}},
  "note": "Entries after “also recorded” stand apart in the source; their conditions may differ.",
  "data": [
    {"smiles": "CN(C)CCc1c[nH]c2cccc(OP(=O)(O)O)c12", "note": "[psilocybin, 4-phosphoryloxy-N,N-dimethyltryptamine]", "values": [
      {"measurement": "MMN: difference between the standard tone waveform and the deviant tone waveform", "setting": "[1]", "value": "larger difference between the standard tone waveform and the deviant form waveform with higher doses"},
      {"measurement": "general brain activity (ongoing spectral power, average PSD)", "setting": "[2]", "value": "higher dose corresponds with a decrease in general brain activity"},
      {"measurement": "number of lever presses or break points (rewards earned)", "setting": "[3]; entire study population of 36 rats, 0.05, 0.1 and 0.2 mg/kg S.C.", "value": "None of these doses were observed to cause obvious changes"},
      {"measurement": "response in PR test", "setting": "[3]; high responder subgroup (12 rats), 0.05-0.2 mg/kg S.C.", "value": "no effect on response"},
      {"measurement": "food responding (lever presses, break point) in PR test", "setting": "[3]; low responder subgroup (12 rats), 0.05 mg/kg S.C., 0.05 mg/kg", "value": "an increase in food responding; also recorded: Significant improvements"},
      {"measurement": "food responding in PR test", "setting": "[3]; low responder subgroup (12 rats), 0.1 mg/kg S.C.", "value": "did not produce an increase in food responding"},
      {"measurement": "pro-cognitive effect measured as % hit", "setting": "[4]; 24 rats, 0.05 mg/kg S.C., 75s SD, 5S ITI, 100 trials, vs. vehicle", "value": "increased (p=0.05, t-test) pro-cognitive effect"},
      {"measurement": "procognitive effect measured as % correct", "setting": "[4]; 24 rats, 0.05 mg/kg S.C., standard conditions, 5 s ITI", "value": "slight non-significant increase"},
      {"measurement": "performance: response speed, number of trials completed", "setting": "[4]; [8]", "value": "no effect on response speed, or number of trials completed"},
      {"measurement": "premature or perseverative responses", "setting": "[4]; [8]", "value": "no effect on premature or perseverative responses"},
      {"measurement": "detrimental effects on performance (motivation, motor control, attention, response speed)", "setting": "[4]; PR and 5CSRTT studies together, 0.05-0.2 mg/kg (PR), 0.05-0.1 mg/kg S.C. (5CSRTT)", "value": "no detrimental effects"},
      {"measurement": "response speed", "setting": "[4]; low attentive cohort, 0.05 mg/kg, vs. vehicle, 0.05 mg/kg", "value": "increased response speed; also recorded: Significant improvements"},
      {"measurement": "effect on accuracy (% correct and % hit)", "setting": "[4]; low attentive subgroup (lowest tertile, N=8), 0.05 and 0.1 mg/kg, vs. vehicle", "value": "strongly evident; also recorded: Significant improvements"},
      {"measurement": "PREM and PSV responses", "setting": "[5]", "value": "increase"},
      {"measurement": "Cmax psilocin", "setting": "[6]", "value": "6+2 ng/ml"},
      {"measurement": "doses at which about half of the subjects experience some negative emotions or acute psychological distress", "setting": "[7]; human subjects", "value": "≥ 30", "unit": "mg"},
      {"measurement": "doses at which the majority of side effects reported in the literature have occurred", "setting": "[7]; human subjects, equals 0.30-0.45 mg/kg", "value": "20 to 30", "unit": "mg"},
      {"measurement": "threshold dose where mild hallucinogenic activity begins to occur in about half of the subjects", "setting": "[7]; human subjects, reported in the literature", "value": 10, "unit": "mg"},
      {"measurement": "onset of physical symptoms (dizziness, nausea, vomiting, headaches, increased pulse and blood pressure etc.)", "setting": "[7]; people, after taking the drug", "value": "20 to 30", "unit": "min"},
      {"measurement": "duration of physical symptoms (dizziness, nausea, vomiting, headaches, increased pulse and blood pressure etc.)", "setting": "[7]; people", "value": "up to 6 hours"},
      {"measurement": "duration of psychedelic symptoms (distorted perception, mood changes)", "setting": "[7]; people, higher doses, most find symptoms gone by 6 hours after ingestion", "value": "up to 12 hours"}
    ]}
  ]
}
